Reference: US7262301B1, “Zinc-chelating ratiometric fluorescent probes and related methods” (Northwestern University, priority 2003, dated 2007)
In brackets after ≈: the same amount, converted by molar mass. Like-named read-outs stand apart in the source and are kept apart here.

Tests used:
[1] = 10 μM ligand, 1 μM Zn(II), pH 7.20, 0.1 M ionic strength, 25° C.; prior art ligands, literature data; cited from earlier work
[2] = tested on: mouse fibroblast LTK cell line; test: Two-photon emission ratio imaging of fixed fibroblast cells; assay type: cell-based
Protocol: FIG. 5. Emission ratio images of fibroblast (LTK) cells treated with Zinbo-5. (A) Brightfield transmission image; (B) ratio image of the intensities at 445 nm and 402 nm; (C) ratio image following a 30 minute treatment with 10 μM zinc sulfate and 20 μM pyrithione at pH 7.4, 25° C., followed by wash with Zinbo-5 stock; (D) ratio image of the same field after a 15 minute treatment with 1 mM TPEN.
The Zinbo-5 probe was tested in the mouse fibroblast LTK cell line. Cells were fixed, treated with a saturated solution of Zinbo-5 and then imaged with two-photon excitation (TPE) laser scanning microscopy using on Zeiss 510 LSM (upright configuration). The excitation beam produced by the femtosecond pulsed Ti:sapphire laser (Tsunami, Spectra-Physics; 8 W Millennia pump) was tuned to 710 nm, (pumping power 6.5 W with 0.5 W entering the Zeiss AOM) was passed through an LSM 510 microscope with an HFT 650 dichroic (Zeiss) and focused onto coverslip adherent fibroblasts using a 63x oil-immersion objective (Zeiss). The NLO META scan head (Zeiss) allowed data collection in 10.7 nm windows centered at 445 nm and 402 nm.
Cells were imaged in the presence of Zinbo-5 to provide the contrast of unbound dye outside of the cells (FIG. 5). After imaging, the same field of cells was treated with 10 μM zinc sulfate and 20 μM pyrithione, a zinc-selective ionophore, resulting in an anticipated increase in the intracellular ratio of emissions from 445 nm and 402 nm (FIG. 5, d-f). Finally, the intracellular ratio was made equal to that of the surrounding unbound dye by treating the same field of view with TPEN (FIG. 5, g-i).
LTK cells were grown as previously published (Nasir, M. S., et al., JBIC (1999) 4:775-783). Cells grown on coverslips were fixed with 4% formaldehyde on ice for 20 minutes and washed with cold PBS before staining. […] Coverslips were attached to slides using Secure-Seal spacers (Molecular Probes) with the saturated staining solution in the spacer well. […]

[3] = Calculated pZn values (-log[Zn]free) for a ligand/zinc solution; assay type: binding
From the text: […] […] The Zn^2+ affinity of Zinbo-5 is much higher than that of di(2-picolyl)amine (DPA), indicating—without limitation—that the phenolate oxygen and benoxazole nitrogen are likely chelating the metal as the third and fourth ligands.

[4] = Maximal water solubility (saturated staining solution); assay type: physicochemical; conditions: PBS (saturated staining solution), PBS with DMSO stock, on ice
[5] = Metal ion selectivity of fluorescence (ratio I443/I395) in biological buffers
Protocol: FIG. 4. Metal ion selectivity of Zinbo-5. Bars are a presentation of the fluorescence ratio I443/I395. Heavy metals (20 μM) and Na^+, K^+, Ca^2+, Mg^2+ (5 mM) were added to 1.5 μM Zinbo-5 in the presence of 10 μM EDTA.

[6] = Binding constant determination: fluorescence intensity ratio (or UV absorbance) in Zn2+/EGTA buffered solutions
Protocol: FIG. 2. (A) Emission spectra of Zinbo-5 with the excitation at 356 nm in Zn^2+/EGTA buffered system (50 mM HEPES, pH 7.20, 0.1 M KNO3; 10 mM EGTA, 1-9 mM zinc sulfate) at 0, 0.14, 0.29, 0.66, 1.1, 1.8, 2.6, 4.0, 6.1, and 11 nM free Zn^2+, respectively. (B) Plots of the fluorescence intensity ratio between 395 nm and 443 nm (I443/I395) with a best curve for a dissociation constant of 2.1±0.1×10^−9.
FIG. 3. UV determination of dissociation constant, Kd: (A) Absorption ratio between at 340 nm and at 374 nm (Abs374/Abs340) in Zn^2+-buffered solution (50 mM HEPES, pH 7.20, 0.1 M KNO3; […], 1-9 mM zinc sulfate).
A series of HEPES (2-[4-(2-hydoroxyethyl)-1-piperazinyl]ethanesulfonic acid) buffer solutions (50 mM, pH 7.20, 0.1 M KNO3) containing various amounts of ZnSO4 (0˜9.5 mM) and 10 mM of EGTA (ethylenebis(oxyethylenenitrilo) tetraacetic acid) were prepared. The concentration of free Zn^2+ was calculated with [EGTA]total, [Zn^2+]total, and K′Zn-EGTA, the apparent binding constant at a given pH and ionic strength. […]
The ratio between 395 nm and 443 nm intensities in the emission spectrum of each solution was measured with the excitation wavelength at 356 nm and was fitted to the following equation (Eq. 2). […]

[7] = heavy metals 20 μM, 1.5 μM probe, 10 μM EDTA

Cc1ccc(S(=O)(=O)Nc2cc(OCC(=O)O)cc3ccc(C)nc23)cc1 [Zinquin acid]
Calculated pZn (-log[Zn]free) [1]: 9.3

O=C(O)CN(CCOCCOCCN(CC(=O)O)CC(=O)O)CC(=O)O [EGTA, ethylenebis(oxyethylenenitrilo) tetraacetic acid]
Calculated pZn (-log[Zn]free) [1]: 9.5

O=C1OC2(c3ccccc31)c1cc(Cl)c(O)c(CN(Cc3ccccn3)Cc3ccccn3)c1Oc1c2cc(Cl)c(O)c1CN(Cc1ccccn1)Cc1ccccn1 [Zinpyr-1]
Calculated pZn (-log[Zn]free) [1]: 10.1

c1ccc(CN(CCN(Cc2ccccn2)Cc2ccccn2)Cc2ccccn2)nc1 [TPEN, N,N,N′,N′-tetrakis (2-pyridylmethyl) ethylenediamine, reference compound]
decrease of the intracellular emission ratio ([2]; LTK cells stained with Zinbo-5, zinc loaded, then excess TPEN (1 mM, 15 minute)): 30%
Calculated pZn (-log[Zn]free) [1]: 16.0

O=C(O)CN(CC(=O)O)CC(=O)O [NTA]
Calculated pZn (-log[Zn]free) [1]: 9.0

O=C(O)c1cc(NCCN(Cc2ccccn2)Cc2ccccn2)ccc1-c1c2ccc(=O)cc-2oc2cc(O)ccc12 [ZnAF-1]
Calculated pZn (-log[Zn]free) [1]: 10.1

O=C(O)CN(CCN(CC(=O)O)CC(=O)O)CC(=O)O [EDTA]
Calculated pZn (-log[Zn]free) [1]: 14.3

COc1cc(O)c(-c2nc3c(CNCc4ccccn4)cccc3o2)cc1OC [Zinbo-5, 2-(4,5-dimethoxy-2-hydroxyphenyl)-4-(2-pyridlmethyl)aminomethylbenzoxazole]
Calculated pZn (-log[Zn]free) ([3]; 10 μM ligand, 1 μM Zn(II), pH 7.20, 0.1 M ionic strength, 25° C., the patent's own probe): 9.3
pZn value (-log[Zn^2+]) ([3]; aqueous solution containing 10 µM ligand and 1 µM zinc ion at pH 7.20 and 0.1 M ionic strength): 9.3
solubility [4]: 1.5 µM (≈ 0.587 µg/mL)
fluorescence response to Mn^2+, Co^2+, Ni^2+, Fe^+ and Cu^2+ [5, 7]: quenched the fluorescence
fluorescence response to Zn^2+ and Cd^2+ [5, 7]: induced an emission shift
fluorescence response to Na^+, K^+, Ca^2+ and Mg^2+ ([5]; metal concentrations as high as 5 mM): no fluorescent response
Zn^2+ affinity compared with di(2-picolyl)amine (DPA) [6]: much higher
Kd ([6]; pH 7.20, fluorescence intensity ratio between 395 nm and 443 nm against log[Zn2+]free, read-out: apparent dissociation constant (Kd) for Zn^2+): 2.2 ± 0.1 nM
cell permeability [2]: cell permeable
average intracellular increase in the emission ratio (445 nm/402 nm) ([2]; LTK cells after 10 μM zinc sulfate and 20 μM pyrithione): ca. 15%

carbonic anhydrase
Calculated pZn (-log[Zn]free) [1]: 12.4
